Experimental data: patent US20230303631A1, “METHOD FOR INDUCING IMMUNITY TO SARS-CoV-2” (RIKEN, priority 2020, published 2023)
Where no end group is shown, it is not given here.

Legend:
[1] = system: CD8 single-positive T cells; test: Intracellular cytokine staining (IFN-γ, TNF-α) after restimulation with individual 15mer peptides; assay type: cell-based, human; settings: for INF-γ production by CD8 single-positive T cells / TNF-α production by CD8 single-positive T cells: PBMCs of 4 healthy volunteers with HLA-A2402, cultured with 15mer mixture (each 10 μg/ml) and IL-2, restimulated with individual 15mer for 16 hours, FIG. 3
Experimental: Culture was carried out for 21 days in presence of IL-2 and a peptide and stimulation with a peptide was carried out in the presence of brefeldin and monensin in the same manner as in Example 1, and then, INF-γ production was examined. More specifically, to PBMCs of 4 healthy volunteers (HV) with HLA-A2402, a mixture of 15mer peptides was added such that the concentration of each peptide became 10 μg/ml. The PBMCs were cultured in the presence of IL-2. As a result, T cells having a binding affinity to a peptide in contact with them survive. Autogenous PBMCs were pulsed with a mixture of 15mer peptides every week, irradiated with 40 Gy and added to the above culture as a feeder. On Day 14 and 21, the mixture of 15mer peptides was further added. Thereafter, the culture obtained was pulsed with individual 15mer peptides and cultured for 16 hours in the presence of brefeldin and monensin to induce INF-γ production. Intracellular cytokine staining (anti-IFN-g-APC, anti-TNF-α-PE) were performed and peptide-specific cytokine producing CD8T cells were analyzed.

[2] = system: CD8 single-positive T cells; settings: PBMCs of healthy donors HD1 to HD5, peptide 10 μM, 21 days with IL-2, then 16 hours with peptide, brefeldin A and monensin; FIG. 1

Row | Sequence | INF-γ production by CD8 single-positive T cells [1] | TNF-α production by CD8 single-positive T cells [1] | ratio of INF-γ-positive, TNF-α-positive CD8T cells (stimulation of T cells) ([1]; comparison among the 15mer peptides, FIG. 4) | induction of IFN-γ production in CD8 single-positive T cells (cytotoxic T cells) [2] | antigen-specific cytotoxic action of CTLs on peptide-pulsed A24-C1R cells (A24-C1R cells)
1 | QYIKWPWYIWLGFIA [15mer-3] | increased | increased | stimulated T cells most satisfactorily | – | –
2 | WPWYIWLGFIAGLIA [15mer-4] | increased | increased | – | – | –
3 | GKYEQYIKWPWYIWL [15mer-2] | increased | increased | – | – | –
4 | QYIKWPWYI [pep #4, QYIKWPWYI] | – | – | – | strong induction of IFN-γ production | exhibited antigen-specific cytotoxic action
